Assay results from ChEMBL document CHEMBL3991601, “The target landscape of clinical kinase drugs” (Science, 2017).
Active and inactive are the calls of the source. Rule as the data show it, for most assays here: actives have a measured Kd and inactives only a lower limit.

Experiments:
[1] = biological target: T1, AarF domain-containing protein kinase 1 (Homo sapiens, UniProt Q86TW2)
T1 sequence (Q86TW2 whole entry): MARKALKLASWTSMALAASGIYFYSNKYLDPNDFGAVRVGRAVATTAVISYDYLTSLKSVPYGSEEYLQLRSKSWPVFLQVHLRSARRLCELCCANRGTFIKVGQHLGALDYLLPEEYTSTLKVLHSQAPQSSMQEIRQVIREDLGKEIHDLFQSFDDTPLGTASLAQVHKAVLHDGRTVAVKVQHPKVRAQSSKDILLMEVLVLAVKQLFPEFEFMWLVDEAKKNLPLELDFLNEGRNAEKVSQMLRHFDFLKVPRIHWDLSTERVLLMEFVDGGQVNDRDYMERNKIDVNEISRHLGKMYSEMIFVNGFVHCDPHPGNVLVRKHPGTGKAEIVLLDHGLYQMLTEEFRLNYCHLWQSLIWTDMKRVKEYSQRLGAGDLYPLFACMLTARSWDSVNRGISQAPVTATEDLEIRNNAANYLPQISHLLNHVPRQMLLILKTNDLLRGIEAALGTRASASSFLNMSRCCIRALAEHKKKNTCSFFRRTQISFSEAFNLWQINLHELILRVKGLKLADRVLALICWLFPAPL

[2] = biological target: Atypical kinase COQ8A, mitochondrial (Homo sapiens, UniProt Q8NI60)
[3] = biological target: T2, Beta-adrenergic receptor kinase 1 (Homo sapiens, UniProt P25098)
T2 sequence (P25098 whole entry): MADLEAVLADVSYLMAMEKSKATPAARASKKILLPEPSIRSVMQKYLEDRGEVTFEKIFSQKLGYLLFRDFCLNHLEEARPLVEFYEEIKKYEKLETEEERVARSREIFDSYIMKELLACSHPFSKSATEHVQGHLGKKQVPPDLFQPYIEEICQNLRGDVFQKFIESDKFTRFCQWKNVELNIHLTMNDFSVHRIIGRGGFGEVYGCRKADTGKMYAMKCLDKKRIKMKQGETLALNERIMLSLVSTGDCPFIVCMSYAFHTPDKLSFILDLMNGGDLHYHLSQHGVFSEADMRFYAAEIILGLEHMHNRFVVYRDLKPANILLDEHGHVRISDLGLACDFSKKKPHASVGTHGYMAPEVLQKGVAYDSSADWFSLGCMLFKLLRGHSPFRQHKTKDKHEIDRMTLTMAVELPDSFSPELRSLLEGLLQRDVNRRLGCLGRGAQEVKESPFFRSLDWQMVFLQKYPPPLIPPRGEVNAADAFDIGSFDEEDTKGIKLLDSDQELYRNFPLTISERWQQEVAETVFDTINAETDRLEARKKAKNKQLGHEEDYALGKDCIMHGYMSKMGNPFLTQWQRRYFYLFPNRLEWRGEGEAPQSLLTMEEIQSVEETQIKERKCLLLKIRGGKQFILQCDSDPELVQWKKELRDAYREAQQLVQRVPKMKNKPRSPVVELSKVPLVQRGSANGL

[4] = biological target: T3, Breakpoint cluster region protein (Homo sapiens, UniProt P11274)
T3 sequence (P11274 whole entry): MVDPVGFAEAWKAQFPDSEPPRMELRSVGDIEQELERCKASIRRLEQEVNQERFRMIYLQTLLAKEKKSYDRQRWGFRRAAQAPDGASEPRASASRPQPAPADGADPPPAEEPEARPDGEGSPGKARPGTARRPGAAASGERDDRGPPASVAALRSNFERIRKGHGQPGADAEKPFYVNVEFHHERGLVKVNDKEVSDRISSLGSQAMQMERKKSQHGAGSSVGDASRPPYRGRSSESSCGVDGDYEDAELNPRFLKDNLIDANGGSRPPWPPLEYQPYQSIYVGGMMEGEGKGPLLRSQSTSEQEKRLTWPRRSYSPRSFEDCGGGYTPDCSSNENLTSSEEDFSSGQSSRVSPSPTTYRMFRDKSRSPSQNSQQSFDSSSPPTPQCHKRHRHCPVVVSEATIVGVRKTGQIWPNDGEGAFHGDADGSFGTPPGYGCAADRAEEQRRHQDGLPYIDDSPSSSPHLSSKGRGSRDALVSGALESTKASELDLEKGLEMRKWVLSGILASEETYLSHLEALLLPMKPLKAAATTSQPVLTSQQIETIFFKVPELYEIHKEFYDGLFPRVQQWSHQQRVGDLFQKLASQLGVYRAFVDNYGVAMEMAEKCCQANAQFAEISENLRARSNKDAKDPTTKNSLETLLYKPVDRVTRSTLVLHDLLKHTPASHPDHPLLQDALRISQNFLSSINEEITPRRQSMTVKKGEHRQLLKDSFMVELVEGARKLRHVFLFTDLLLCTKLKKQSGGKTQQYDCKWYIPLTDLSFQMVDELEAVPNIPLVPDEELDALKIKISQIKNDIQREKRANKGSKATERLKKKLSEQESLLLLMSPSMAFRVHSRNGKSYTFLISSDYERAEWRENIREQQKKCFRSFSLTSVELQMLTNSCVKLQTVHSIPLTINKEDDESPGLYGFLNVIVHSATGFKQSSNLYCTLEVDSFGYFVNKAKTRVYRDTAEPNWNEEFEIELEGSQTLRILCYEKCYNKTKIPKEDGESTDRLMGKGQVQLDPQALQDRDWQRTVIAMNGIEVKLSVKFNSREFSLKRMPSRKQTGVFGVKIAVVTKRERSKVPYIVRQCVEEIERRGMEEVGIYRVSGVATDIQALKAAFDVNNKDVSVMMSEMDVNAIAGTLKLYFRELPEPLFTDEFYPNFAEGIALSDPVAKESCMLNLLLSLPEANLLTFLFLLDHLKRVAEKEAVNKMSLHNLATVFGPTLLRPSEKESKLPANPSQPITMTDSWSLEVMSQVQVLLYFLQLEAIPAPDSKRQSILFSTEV

[5] = biological target: Platelet-derived growth factor receptor beta (Homo sapiens, UniProt P09619)
Pyridoxal kinase = biological target: T4, Pyridoxal kinase (Homo sapiens, UniProt O00764)
T4 sequence (O00764 whole entry): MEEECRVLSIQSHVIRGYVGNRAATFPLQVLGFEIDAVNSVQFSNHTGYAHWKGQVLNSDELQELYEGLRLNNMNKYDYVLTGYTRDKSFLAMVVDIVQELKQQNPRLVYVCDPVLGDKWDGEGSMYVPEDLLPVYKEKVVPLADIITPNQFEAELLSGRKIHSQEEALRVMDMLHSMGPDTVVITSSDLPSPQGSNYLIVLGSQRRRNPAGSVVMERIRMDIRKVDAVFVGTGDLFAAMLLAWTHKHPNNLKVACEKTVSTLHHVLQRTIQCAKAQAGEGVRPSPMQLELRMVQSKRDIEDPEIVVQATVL

[6] = biological target: 5'-AMP-activated protein kinase catalytic subunit alpha-1 (Homo sapiens, UniProt Q13131)
Also: in the data inactive means no Kd found up to 30 µM.

Atypical kinase COQ8A, mitochondrial, sequence (Q8NI60 whole entry): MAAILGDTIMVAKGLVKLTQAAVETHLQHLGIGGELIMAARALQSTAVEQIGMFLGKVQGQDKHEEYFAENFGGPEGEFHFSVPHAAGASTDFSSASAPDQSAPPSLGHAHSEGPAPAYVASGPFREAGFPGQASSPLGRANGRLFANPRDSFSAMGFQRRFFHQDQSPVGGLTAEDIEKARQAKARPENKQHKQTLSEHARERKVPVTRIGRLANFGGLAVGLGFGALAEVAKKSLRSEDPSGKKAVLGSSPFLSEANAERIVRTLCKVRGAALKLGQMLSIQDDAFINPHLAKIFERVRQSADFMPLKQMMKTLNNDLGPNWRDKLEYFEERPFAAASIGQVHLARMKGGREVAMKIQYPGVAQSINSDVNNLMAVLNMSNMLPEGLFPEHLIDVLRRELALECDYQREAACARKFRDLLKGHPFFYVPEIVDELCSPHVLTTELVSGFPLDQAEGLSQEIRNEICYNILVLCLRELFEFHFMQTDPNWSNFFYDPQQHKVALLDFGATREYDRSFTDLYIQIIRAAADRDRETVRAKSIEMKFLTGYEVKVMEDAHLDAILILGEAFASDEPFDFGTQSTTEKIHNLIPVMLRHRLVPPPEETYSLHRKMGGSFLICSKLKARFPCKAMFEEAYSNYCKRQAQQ
5'-AMP-activated protein kinase catalytic subunit alpha-1, sequence (Q13131 whole entry): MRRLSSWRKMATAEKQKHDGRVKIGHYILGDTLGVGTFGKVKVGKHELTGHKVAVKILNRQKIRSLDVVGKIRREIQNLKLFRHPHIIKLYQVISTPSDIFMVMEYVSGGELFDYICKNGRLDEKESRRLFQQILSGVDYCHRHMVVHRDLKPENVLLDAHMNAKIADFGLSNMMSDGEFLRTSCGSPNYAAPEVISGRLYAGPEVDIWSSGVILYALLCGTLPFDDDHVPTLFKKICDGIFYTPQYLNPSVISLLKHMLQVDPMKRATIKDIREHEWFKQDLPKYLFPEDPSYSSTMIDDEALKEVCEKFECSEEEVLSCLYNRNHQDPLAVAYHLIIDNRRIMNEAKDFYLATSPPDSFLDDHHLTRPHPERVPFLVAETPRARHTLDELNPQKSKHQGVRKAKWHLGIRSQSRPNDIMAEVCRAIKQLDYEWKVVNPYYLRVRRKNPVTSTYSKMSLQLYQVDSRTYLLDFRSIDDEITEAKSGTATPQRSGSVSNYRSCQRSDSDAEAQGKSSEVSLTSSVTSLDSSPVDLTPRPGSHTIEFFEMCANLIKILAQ
Platelet-derived growth factor receptor beta, sequence (P09619 whole entry): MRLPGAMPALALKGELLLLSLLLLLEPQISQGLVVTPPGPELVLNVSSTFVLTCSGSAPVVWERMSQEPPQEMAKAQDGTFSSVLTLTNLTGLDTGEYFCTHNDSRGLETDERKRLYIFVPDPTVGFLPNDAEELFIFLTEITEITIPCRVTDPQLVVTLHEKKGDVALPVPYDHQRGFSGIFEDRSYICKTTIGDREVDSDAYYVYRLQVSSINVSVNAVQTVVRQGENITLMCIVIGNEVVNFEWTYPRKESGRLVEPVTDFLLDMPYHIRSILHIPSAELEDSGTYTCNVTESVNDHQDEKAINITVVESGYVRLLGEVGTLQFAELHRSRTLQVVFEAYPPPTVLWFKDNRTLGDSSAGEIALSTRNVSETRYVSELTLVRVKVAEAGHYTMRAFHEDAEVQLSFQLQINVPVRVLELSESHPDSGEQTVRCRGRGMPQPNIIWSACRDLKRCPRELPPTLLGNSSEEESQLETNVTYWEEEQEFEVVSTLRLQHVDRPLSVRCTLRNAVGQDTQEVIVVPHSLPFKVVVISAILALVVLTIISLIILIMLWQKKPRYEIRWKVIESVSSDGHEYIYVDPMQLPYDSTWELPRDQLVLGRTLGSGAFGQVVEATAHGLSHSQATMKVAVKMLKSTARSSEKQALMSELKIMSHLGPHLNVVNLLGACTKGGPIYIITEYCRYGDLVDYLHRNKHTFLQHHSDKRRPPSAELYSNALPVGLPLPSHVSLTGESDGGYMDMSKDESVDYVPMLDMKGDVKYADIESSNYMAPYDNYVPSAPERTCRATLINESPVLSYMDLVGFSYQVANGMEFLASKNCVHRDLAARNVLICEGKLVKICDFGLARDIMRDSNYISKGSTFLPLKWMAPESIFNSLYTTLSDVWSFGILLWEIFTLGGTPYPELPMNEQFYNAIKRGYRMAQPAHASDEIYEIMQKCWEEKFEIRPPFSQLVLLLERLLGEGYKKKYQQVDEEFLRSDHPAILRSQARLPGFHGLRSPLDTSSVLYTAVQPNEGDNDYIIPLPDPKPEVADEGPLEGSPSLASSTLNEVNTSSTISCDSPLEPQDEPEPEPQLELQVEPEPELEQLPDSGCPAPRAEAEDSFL

SMILES | Kd [1] | Kd [2] | Kd [3] | Kd [4] | Kd [5] | Kd (Pyridoxal kinase) | Kd [6]
C=CC(=O)Nc1cc(Nc2nccc(-c3cn(C)c4ccccc34)n2)c(OC)cc1N(C)CCN(C)C [OSIMERTINIB] | > 30 µM (inactive) | > 30 µM (inactive) | > 30 µM (inactive) | > 30 µM (inactive) | > 30 µM (inactive) | > 30 µM (inactive) | > 30 µM (inactive)
CNC(=O)c1ccc(Nc2ncc(C(F)(F)F)c(NCc3nccnc3N(C)S(C)(=O)=O)n2)cc1 [DEFACTINIB] | > 30 µM (inactive) | > 30 µM (inactive) | > 30 µM (inactive) | > 30 µM (inactive) | > 30 µM (inactive) | > 30 µM (inactive) | > 30 µM (inactive)
c1cc(OCCN2CCCCC2)cc(-c2n[nH]c3ccc(-c4nc[nH]n4)cc23)c1 [CC-401] | > 30 µM (inactive) | > 30 µM (inactive) | > 30 µM (inactive) | > 30 µM (inactive) | > 30 µM (inactive) | > 30 µM (inactive) | > 30 µM (inactive)

The remaining lines, values ahead:

Kd [1] | Kd [2] | Kd [3] | Kd [4] | Kd [5] | Kd (Pyridoxal kinase) | Kd [6] | SMILES
> 30 µM (inactive) | > 30 µM (inactive) | > 30 µM (inactive) | 0.065 µM (active) | 0.109 µM (active) | > 30 µM (inactive) | > 30 µM (inactive) | Cc1cc(-c2cc(OC(=O)c3ccccc3)ccc2Cl)cc2nnc(Nc3ccc(OCCN4CCCC4)cc3)nc12 [TG100-801]
> 30 µM (inactive) | > 30 µM (inactive) | > 30 µM (inactive) | > 30 µM (inactive) | > 30 µM (inactive) | > 30 µM (inactive) | > 30 µM (inactive) | COc1cccc2cc(-c3nc([C@H]4CC[C@H](C(=O)O)CC4)n4ncnc(N)c34)[nH]c12 [OSI-027]
> 30 µM (inactive) | > 30 µM (inactive) | > 30 µM (inactive) | > 30 µM (inactive) | > 30 µM (inactive) | > 30 µM (inactive) | > 30 µM (inactive) | NC(=O)c1ccc(N(C(N)=O)c2c(F)cccc2F)nc1-c1ccc(F)cc1F [VX-702]
